Reference: patent publication US20250101486A1, “METHOD AND COMPOSITION FOR STABILISING NICOTINAMIDE ADENINE DINUCLEOTIDE” (ORIENTAL YEAST CO., LTD., priority 2022, published 2025)

Assays:
[1] = Stability test of NAD (recovery test of NAD added to human pooled serum); format: in vitro ADME
Method: NAD was added to 2250 μL of human pooled serum to make 50 μmol/L and incubated at refrigeration, 25° C. and 37° C. The NAD concentrations in serum were measured at 1, 2, and 19 hours after the start of incubation.
The NAD concentration of the sample (i.e., serum) was measured by the following procedure,
(§1) Three times the volume of 0.4 M trichloroacetic acid solution was added to the collected sample, mixed, and placed for 10 minutes under a static condition at room temperature. The mixture was then centrifuged, and the supernatant was collected as an NAD extract.
(§2) NAD in the extract was measured using a 7180 type Hitachi automatic analyzer (manufactured by Hitachi High-Tech Corporation). The measurement was performed by setting the first test solution (comprising a phosphate buffer (pH 7.0), 0.6 mM WST-8 and 1.7 U/mL glucose dehydrogenase (GLUCDH “Amano” 2 manufactured by Amano Enzyme Inc.) and the second test solution (comprising a phosphate buffer (pH 7.8), 320 mM D-glucose and 15 U/mL diaphorase (No. 46445003 manufactured by Oriental Yeast Co., Ltd.) using the measurement parameters as follows. • Analysis method . . . Rate A • Measurement wavelength (sub/main) . . . 600 nm/450 nm • Reaction duration . . . 10 minutes • Photometric points 27 to 34 • Sample solution (NAD extract solution) . . . 2 μL • R1 reagent . . . 120 μL • R2 reagent . . . 40 μL
(§3) That is, 2 AL of NAD extract and 120 μL of the first test solution were mixed and incubated at 37° C. for 4.5 min (photometric point 1 to 16), and 40 μL of the second test solution was added to start the reaction (photometric point 17). The value of an absorbance change per minute (ΔAbs/min) was calculated by subtracting an absorbance of water (blank) at the same photometric point from the absorbance value of the measured sample at 8 to 10 minutes (photometric point 27 to 34) after the start of reaction.
(§4) The NAD concentration of the sample was calculated from the calibration curve (the NAD concentration−the increase rate of absorbance (ΔAbs/min)) that was obtained beforehand by measuring multiple NAD solutions at predetermined concentrations.
FIG. 1 is a graph illustrating a time-course change of relative values (%) of the NAD concentration in serum under each incubation condition when the concentration at the time of NAD addition (0 hour) is set as 100%. When stored at 25° C. and 37° C., the NAD concentrations reached almost 0% within two hours.

[2] = after collection, suspended in a buffer solution for extraction, cooled in ice; cited from earlier work
[3] = Stabilizing study of NAD in blood using nicotinamide and NR; details: rat whole blood, overnight at 25° C.
Method: as §1, §2, §3, §4
(§5) Whole blood was collected from SD retired rats using EDTA-filled blood collection tubes, PBS (pH 6.0) comprising nicotinamide and NR at 10 times the concentration shown in Table 2 was prepared as a 10× stabilizer for each. 450 μL of whole blood was transferred to a 1.5-mL centrifuge tube, and 50 μL of a 10× stabilizer for each was added and mixed. NAD was added to each tube to make 100 µM and used as a measurement sample.
(§6) The NAD extraction and the NAD measurement were performed on each measurement sample after being placed overnight under a static condition at 25° C., in the same manner according to Example 1. The relative value (%) of NAD concentration of each measured sample was calculated, wherein the concentration at the time of NAD addition (0 hour) was set as 100%. […] It was confirmed that the amount of remaining NAD became higher as the amount of nicotinamide and NR increased.

[4] = Stabilizing study of NAD in blood using NMN and NR; details: rat whole blood, overnight at 25° C.
Method: Whole blood was collected from SD retired rats using EDTA-filled blood collection tubes. PBS (pH 6.0) comprising NMN and NR at 10 times the concentration shown in Table 3 was prepared as a 10× stabilizer for each. 450 μL of whole blood was transferred to a 1.5-mL centrifuge tube, and 50 μL of 10× stabilizer for each was added and mixed. NAD was added to each tube to make 100 µM and used as a measurement sample.
The NAD extraction and the NAD measurement were performed on each measurement sample after being placed overnight under a static condition overnight at 25° C., in the same manner according to Example 1. The relative value (%) of NAD concentration of each measured sample was calculated, wherein the concentration at the time of NAD addition (0 hour) was set as 100%.

[5] = Stabilizing study of NAD in blood using nicotinamide and NMN; details: rat whole blood, overnight at 25° C.
Method: as §1, §2, §3, §4
as §5, with “tubes.” for “tubes,”, “NMN” for “NR”, “1” for “2”
as §6, with “NMN” for “NR”

## NC(=O)c1ccc[n+]([C@@H]2O[C@H](COP(=O)([O-])OP(=O)(O)OC[C@H]3O[C@@H](n4cnc5c(N)ncnc54)[C@H](O)[C@@H]3O)[C@@H](O)[C@H]2O)c1 [NAD, nicotinamide adenine dinucleotide]
[1]; stored at 25° C., within two hours
  relative value (%) of NAD concentration in serum (0 hour = 100%): ~0%
[1]; stored at 37° C., within two hours
  relative value (%) of NAD concentration in serum (0 hour = 100%): ~0%
[1]; stored at refrigeration, within 20 hours
  relative value (%) of NAD concentration in serum (0 hour = 100%): ~0%
[1]; stored at refrigeration, within two hours
  NAD concentration in serum relative to 0 hour: reduced by about half
[2]
  time for which a blood sample for NAD measurement is stable: 5 h

## NC(=O)c1ccc[n+]([C@@H]2O[C@H](CO)[C@@H](O)[C@H]2O)c1 [NR, nicotinamide riboside]
[3]; 0 mM nicotinamide, 3 mM NR
  relative value (%) of NAD concentration (0 hour = 100%): 7.5%
[3]; 0 mM nicotinamide, 10 mM NR
  relative value (%) of NAD concentration (0 hour = 100%): 49.7%
[3]; 0 mM nicotinamide, 20 mM NR
  relative value (%) of NAD concentration (0 hour = 100%): 64.8%
[4]; 20 mM NR, 0 mM NMN
  relative value (%) of NAD concentration (0 hour = 100%): 62.9%
[4]; 50 mM NR, 0 mM NMN
  relative value (%) of NAD concentration (0 hour = 100%): 71.2%
[4]; 100 mM NR, 0 mM NMN
  relative value (%) of NAD concentration (0 hour = 100%): 77.7%

## NC(=O)c1cccnc1 [Nicotinamide, nicotinamide]
[5]; 50 mM nicotinamide, 0 mM NMN
  relative value (%) of NAD concentration (0 hour = 100%): 7.4%
[5]; 100 mM nicotinamide, 0 mM NMN
  relative value (%) of NAD concentration (0 hour = 100%): 6.6%
[5]; 200 mM nicotinamide, 0 mM NMN
  relative value (%) of NAD concentration (0 hour = 100%): 13.7%
[3]; 50 mM nicotinamide, 0 mM NR
  relative value (%) of NAD concentration (0 hour = 100%): 7.8%
[3]; 100 mM nicotinamide, 0 mM NR
  relative value (%) of NAD concentration (0 hour = 100%): 8.7%
[3]; 200 mM nicotinamide, 0 mM NR
  relative value (%) of NAD concentration (0 hour = 100%): 10.8%

## nicotinamide mononucleotide [NMN]
[5]; 0 mM nicotinamide, 3 mM NMN
  relative value (%) of NAD concentration (0 hour = 100%): 8.2%
[5]; 0 mM nicotinamide, 10 mM NMN
  relative value (%) of NAD concentration (0 hour = 100%): 16.1%
[5]; 0 mM nicotinamide, 20 mM NMN
  relative value (%) of NAD concentration (0 hour = 100%): 33.0%
[4]; 0 mM NR, 20 mM NMN
  relative value (%) of NAD concentration (0 hour = 100%): 29.1%
[4]; 0 mM NR, 50 mM NMN
  relative value (%) of NAD concentration (0 hour = 100%): 58.0%
[4]; 0 mM NR, 100 mM NMN
  relative value (%) of NAD concentration (0 hour = 100%): 89.6%
